In PubChem BioAssay AID256 (DTP/NCI, 2004):
Inconclusive results and toxic doses are left out. The calls were made as follows: active = survival T/C of 150% or more; inactive = T/C below 125% in these data.

Test system: CD2F1 mice, L1210 leukemia ip, survival T/C
Assay: NCI In Vivo Anticancer Drug Screen. Data for tumor model L1210 Leukemia (intraperitoneal) in CD2F1 (CDF1) mice
Conditions: higher = longer survival
Method in brief: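 Compound-dosed mice with transplantable tumor versus matched vehicle controls; endpoint ratio T/C reported.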

[1] = endpoint: mean survival time, dose: 50.0 mg/kg/injection, schedule: Q01DX009 (ip), vehicle: saline with Tween-80
[2] = endpoint: mean survival time, dose: 100.0 mg/kg/injection, schedule: Q01DX009 (ip), vehicle: saline with Tween-80
[3] = endpoint: mean survival time, dose: 200.0 mg/kg/injection, schedule: Q01DX009 (ip), vehicle: saline with Tween-80
[4] = endpoint: mean survival time, dose: 400.0 mg/kg/injection, schedule: Q01DX009 (ip), vehicle: saline with Tween-80
[5] = endpoint: mean survival time, dose: 100.0 mg/kg/injection, schedule: Q01DX001 (ip), vehicle: saline
[6] = endpoint: mean survival time, dose: 200.0 mg/kg/injection, schedule: Q01DX001 (ip), vehicle: saline
[7] = endpoint: mean survival time, dose: 100.0 mg/kg/injection, schedule: Q04DX002 (ip), vehicle: saline with Tween-80
[8] = endpoint: mean survival time, dose: 200.0 mg/kg/injection, schedule: Q04DX002 (ip), vehicle: saline with Tween-80
[9] = endpoint: mean survival time, dose: 100.0 mg/kg/injection, schedule: Q04DX003 (ip), vehicle: saline
[10] = endpoint: mean survival time, dose: 200.0 mg/kg/injection, schedule: Q04DX003 (ip), vehicle: saline
[11] = endpoint: mean survival time, dose: 400.0 mg/kg/injection, schedule: Q01DX001 (ip), vehicle: saline
[12] = endpoint: mean survival time, dose: 400.0 mg/kg/injection, schedule: Q04DX003 (ip), vehicle: saline
[13] = endpoint: mean survival time, dose: 12.5 mg/kg/injection, schedule: Q01DX009 (ip), vehicle: saline with Tween-80
[14] = endpoint: mean survival time, dose: 25.0 mg/kg/injection, schedule: Q01DX009 (ip), vehicle: saline with Tween-80
[15] = endpoint: mean survival time, dose: 400.0 mg/kg/injection, schedule: Q04DX002 (ip), vehicle: saline with Tween-80
[16] = endpoint: mean survival time, dose: 100.0 mg/kg/injection, schedule: Q01DX001 (ip), vehicle: saline with Tween-80
[17] = endpoint: mean survival time, dose: 200.0 mg/kg/injection, schedule: Q01DX001 (ip), vehicle: saline with Tween-80
[18] = endpoint: mean survival time, dose: 400.0 mg/kg/injection, schedule: Q01DX001 (ip), vehicle: saline with Tween-80
[19] = endpoint: mean survival time, dose: 100.0 mg/kg/injection, schedule: Q04DX003 (ip), vehicle: saline with Tween-80
[20] = endpoint: mean survival time, dose: 200.0 mg/kg/injection, schedule: Q04DX003 (ip), vehicle: saline with Tween-80
[21] = endpoint: mean survival time, dose: 400.0 mg/kg/injection, schedule: Q04DX003 (ip), vehicle: saline with Tween-80

Measured: T/C

C/C=C(\C)C(C)O (configuration not stated)
inactive: endpoint: mean survival time, dose: 50.0 mg/kg/injection, schedule: Q01DX005 (ip), vehicle: saline 87 % of control | [1] 98 % of control | endpoint: mean survival time, dose: 50.0 mg/kg/injection, schedule: Q04DX002 (ip), vehicle: saline + alcohol 92 % of control | endpoint: mean survival time, dose: 100.0 mg/kg/injection, schedule: Q01DX005 (ip), vehicle: saline 102 % of control | [2] 98 % of control | endpoint: mean survival time, dose: 100.0 mg/kg/injection, schedule: Q04DX002 (ip), vehicle: saline + alcohol 103 % of control | endpoint: mean survival time, dose: 200.0 mg/kg/injection, schedule: Q01DX005 (ip), vehicle: saline 94 % of control | [3] 95 % of control | endpoint: mean survival time, dose: 200.0 mg/kg/injection, schedule: Q04DX002 (ip), vehicle: saline + alcohol 101 % of control | endpoint: mean survival time, dose: 400.0 mg/kg/injection, schedule: Q01DX005 (ip), vehicle: saline 94 % of control | [4] 102 % of control | endpoint: mean survival time, dose: 400.0 mg/kg/injection, schedule: Q04DX002 (ip), vehicle: saline + alcohol 103 % of control

CC(Cc1ccc2c(c1)OCO2)NCC(O)c1ccc(O)c(O)c1 (configuration not stated)
inactive: [5] 103 % of control | [6] 109 % of control

C1CSCCSCCCSCCSC1
inactive: endpoint: mean survival time, dose: 50.0 mg/kg/injection, schedule: Q04DX002 (ip), vehicle: saline with Tween-80 96 % of control | [7] 108 % of control | [8] 101 % of control

COc1ccc2c(c1)CCc1cn[nH]c1-2
inactive: [5] 101 % of control | [9] 106 % of control | [6] 103 % of control | [10] 106 % of control | [11] 98 % of control | [12] 100 % of control

CC(C)(C)C(C)(O)CN (configuration not stated)
inactive: [9] 95 % of control | [10] 101 % of control | [12] 92 % of control

CCOC(=O)C(Br)(Br)C(=O)OCC
inactive: endpoint: mean survival time, dose: 6.25 mg/kg/injection, schedule: Q01DX009 (ip), vehicle: saline with Tween-80 99 % of control | [13] 99 % of control | [14] 99 % of control

O=C(COc1ccc(Cl)cc1Cl)Nc1cccc(Cl)c1
inactive: [7] 101 % of control | [8] 101 % of control | [15] 93 % of control

O=[N+]([O-])c1ccc(CSC2=NCCN2)cc1
inactive: endpoint: mean survival time, dose: 100.0 mg/kg/injection, schedule: Q01DX009 (ip), vehicle: saline 106 % of control

COc1ccc(OCCOC(=O)Nc2cc(Cl)c(OC)cc2OC)cc1
inactive: [13] 106 % of control | [14] 103 % of control | [1] 106 % of control | [2] 92 % of control | [3] 92 % of control

CN=C(N)/N=C(\N)C(Cl)(Cl)Cl
inactive: [5] 111 % of control | [6] 86 % of control | [11] 90 % of control

O=S(=O)(CCCCCl)Nc1ccccn1
inactive: [7] 91 % of control | [8] 94 % of control | [15] 109 % of control

Cc1cn(C2CC(O)C(CO)O2)c(=O)nc1NCc1cccs1 (configuration not stated)
inactive: endpoint: median survival time, dose: 12.5 mg/kg/injection, schedule: Q01DX005 (ip), vehicle: water 103 % of control | endpoint: median survival time, dose: 25.0 mg/kg/injection, schedule: Q01DX005 (ip), vehicle: water 105 % of control | endpoint: median survival time, dose: 50.0 mg/kg/injection, schedule: Q01DX005 (ip), vehicle: water 106 % of control | endpoint: median survival time, dose: 100.0 mg/kg/injection, schedule: Q01DX005 (ip), vehicle: water 101 % of control | endpoint: median survival time, dose: 200.0 mg/kg/injection, schedule: Q01DX005 (ip), vehicle: water 103 % of control

Cc1cnccc1Br
inactive: endpoint: mean survival time, dose: 25.0 mg/kg/injection, schedule: Q01DX009 (ip), vehicle: water 96 % of control | endpoint: mean survival time, dose: 50.0 mg/kg/injection, schedule: Q01DX009 (ip), vehicle: water 96 % of control | endpoint: mean survival time, dose: 100.0 mg/kg/injection, schedule: Q01DX009 (ip), vehicle: water 86 % of control | endpoint: mean survival time, dose: 200.0 mg/kg/injection, schedule: Q01DX009 (ip), vehicle: water 90 % of control

CCN(CC)C(=S)SCCSC(=S)N(CC)CC
inactive: [7] 92 % of control | [8] 106 % of control | [15] 89 % of control

O=C(Cc1cccc([N+](=O)[O-])c1)Nc1cccc(S(=O)(=O)F)c1
inactive: [16] 96 % of control | [17] 95 % of control | [18] 96 % of control

Clc1ccccc1-c1nc2ccccc2[nH]1
inactive: endpoint: mean survival time, dose: 50.0 mg/kg/injection, schedule: Q04DX003 (ip), vehicle: saline with Tween-80 98 % of control | [19] 96 % of control | [20] 96 % of control

CCCCN1C(=O)C(=O)N(c2cc(OC)ccc2OC)C1=O
inactive: [1] 86 % of control | [2] 90 % of control | [3] 86 % of control

CC(C)(C)C1C=Nn2c(=O)n(-c3ccccc3)c(=O)n21 (configuration not stated)
inactive: endpoint: mean survival time, dose: 12.5 mg/kg/injection, schedule: Q01DX009 (ip), vehicle: other 100 % of control | endpoint: mean survival time, dose: 25.0 mg/kg/injection, schedule: Q01DX009 (ip), vehicle: other 94 % of control | endpoint: mean survival time, dose: 50.0 mg/kg/injection, schedule: Q01DX009 (ip), vehicle: other 101 % of control | endpoint: mean survival time, dose: 100.0 mg/kg/injection, schedule: Q01DX009 (ip), vehicle: other 100 % of control | endpoint: mean survival time, dose: 200.0 mg/kg/injection, schedule: Q01DX009 (ip), vehicle: other 99 % of control

CO[C@H]1C[C@H](O[C@H]2CC[C@]3(C=O)[C@H]4CC[C@]5(C)[C@@H](C6=CC(=O)OC6)CC[C@]5(O)[C@@H]4CC[C@]3(O)C2)O[C@H](C)[C@H]1O[C@@H]1O[C@H](CO)[C@@H](O)[C@H](O)[C@H]1O
inactive: endpoint: mean survival time, dose: 0.25 mg/kg/injection, schedule: Q01DX009 (ip), vehicle: saline 102 % of control | endpoint: mean survival time, dose: 0.5 mg/kg/injection, schedule: Q01DX009 (ip), vehicle: saline 96 % of control | endpoint: mean survival time, dose: 1.0 mg/kg/injection, schedule: Q01DX009 (ip), vehicle: saline 110 % of control

CCC(C)C(C(=O)OCC[N+](C)(CC)CC)c1ccc(C)c(C)c1 (configuration not stated)
inactive: endpoint: mean survival time, dose: 12.5 mg/kg/injection, schedule: Q04DX003 (ip), vehicle: saline 93 % of control | endpoint: mean survival time, dose: 25.0 mg/kg/injection, schedule: Q04DX003 (ip), vehicle: saline 101 % of control | endpoint: mean survival time, dose: 50.0 mg/kg/injection, schedule: Q04DX003 (ip), vehicle: saline 97 % of control

CCN=C(NCC)SCCSC(=NCC)NCC
inactive: [7] 104 % of control | [8] 102 % of control

N=C(N)SCc1cccc2c(=O)cc(-c3ccccc3)oc12
inactive: [14] 95 % of control | [1] 96 % of control | [2] 101 % of control | [3] 104 % of control | endpoint: median survival time, dose: 25.0 mg/kg/injection, schedule: Q01DX009 (ip), vehicle: saline 113 % of control | endpoint: median survival time, dose: 50.0 mg/kg/injection, schedule: Q01DX009 (ip), vehicle: saline 113 % of control | endpoint: median survival time, dose: 100.0 mg/kg/injection, schedule: Q01DX009 (ip), vehicle: saline 114 % of control | endpoint: median survival time, dose: 200.0 mg/kg/injection, schedule: Q01DX009 (ip), vehicle: saline 113 % of control | endpoint: median survival time, dose: 400.0 mg/kg/injection, schedule: Q01DX009 (ip), vehicle: saline 97 % of control

CC1CC2(C)C(CC1=O)CC(C)C1C3CCC(O)C3(C)CCC12 (configuration not stated)
inactive: [19] 97 % of control | [20] 92 % of control | [21] 95 % of control

Nc1cc(Cl)c(Cl)cc1Cl
inactive: [1] 93 % of control | [2] 106 % of control | [19] 100 % of control | [3] 95 % of control | [20] 94 % of control | [4] 108 % of control

c1ccc(N/N=C(/c2ccccc2)c2ccccn2)cc1
inactive: [16] 103 % of control | [17] 111 % of control | [18] 105 % of control

CCCCCCC(Sc1n[nH]c(=O)[nH]c1=O)C(=O)OCC (configuration not stated)
inactive: endpoint: mean survival time, dose: 12.5 mg/kg/injection, schedule: Q01DX005 (ip), vehicle: distilled water + Tween-80 97 % of control | endpoint: mean survival time, dose: 25.0 mg/kg/injection, schedule: Q01DX005 (ip), vehicle: distilled water + Tween-80 102 % of control | endpoint: mean survival time, dose: 50.0 mg/kg/injection, schedule: Q01DX005 (ip), vehicle: distilled water + Tween-80 102 % of control | endpoint: mean survival time, dose: 100.0 mg/kg/injection, schedule: Q01DX005 (ip), vehicle: distilled water + Tween-80 96 % of control | endpoint: mean survival time, dose: 200.0 mg/kg/injection, schedule: Q01DX005 (ip), vehicle: distilled water + Tween-80 97 % of control

CN(C)Cc1cc(C(C)(C)C)cc(C2CCCCC2)c1O
inactive: [19] 100 % of control | [20] 100 % of control | [21] 103 % of control
